Source: patent publication US20080009418A1, “Selective Inhibitors” (Alchemia LTD., priority 2004, published 2008)

Legend:
Human δ-opioid (DOP) = target: T1, Human δ-opioid (DOP) (Homo sapiens, UniProt P41143); test: Radioligand binding, human δ-opioid (DOP) membranes, FlashPlate, [3H]-Bremazocine; conditions: compound at 10 μM, [3H]-Bremazocine
T1 construct: purchased Perkin Elmer Biosignal
Outline: (§1)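 Cloned human receptor membranes were coated onto FlashPlate wells and incubated with radioligand and compound (added from a 0.5 mM DMSO daughter plate) for 1 hour at room temperature in the dark. Scintillation counting gave percent inhibition, with DMSO defining total and reference ligand defining non-specific binding.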

Human κ-Opioid (KOP) = target: T2, Human κ-Opioid (KOP) (Homo sapiens, UniProt P41145); test: Radioligand binding, human κ-opioid (KOP) membranes, filtration, [3H]-Diprenorphine; conditions: compound at 10 μM, [3H]-Diprenorphine
T2 construct: purchased Perkin Elmer Biosignal
Outline: (§2)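 Filtration binding on cloned human receptor membranes (1 Unit/well), [125I]-Substance P for NK1 and [3H]-Diprenorphine for KOP, 1 h at room temperature. Filters PEI-presoaked, washed with cold 50 mM Tris-HCl pH 7.4, counted by scintillation; percent inhibition calculated, reference ligand defining non-specific binding.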

Human Melanocortin (MC3) = target: T3, Human Melanocortin (MC3) (Homo sapiens, UniProt P41968); test: Radioligand binding, human melanocortin MC3 membranes, FlashPlate, [125I]-NDP-αMSH; conditions: compound at 10 μM, [125I]-NDP-αMSH
T3 construct: purchased Perkin Elmer Biosignal
Outline: as §1

Human Melanocortin (MC4) = target: T4, Human Melanocortin (MC4) (Homo sapiens, UniProt P32245); test: Radioligand binding, human melanocortin MC4 membranes, FlashPlate, [125I]-NDP-αMSH; conditions: compound at 10 μM, [125I]-NDP-αMSH
T4 construct: purchased Perkin Elmer Biosignal
Outline: as §1

Human melanocortin (MC5) = target: T5, Human melanocortin (MC5) (Homo sapiens, UniProt P33032); test: Radioligand binding, human melanocortin MC5 membranes, FlashPlate, [125I]-NDP-αMSH; conditions: compound at 10 μM, [125I]-NDP-αMSH
T5 construct: purchased Perkin Elmer Biosignal
Outline: as §1

[1] = target: T6, Human melanin-concentrating hormone (MCH1) (Homo sapiens, UniProt Q99705); test: Radioligand binding, human melanin-concentrating hormone MCH1 membranes, FlashPlate, [125I]-S36057; conditions: compound at 10 μM
T6 construct: purchased Perkin Elmer Biosignal
Outline: as §1

Human μ-opioid (MOP) = target: T7, Human μ-opioid (MOP) (Homo sapiens, UniProt P35372); test: Radioligand binding, human μ-opioid (MOP) membranes, FlashPlate, [3H]-Naloxone; conditions: compound at 10 μM, [3H]-Naloxone
T7 construct: purchased Perkin Elmer Biosignal
Outline: as §1

Human neurokinin (NK1) = target: T8, Human neurokinin (NK1) (Homo sapiens, UniProt P25103); test: Radioligand binding, human neurokinin NK1 membranes, filtration, [125I]-Substance P; conditions: compound at 10 μM, [125I]-Substance P
T8 construct: purchased Perkin Elmer Biosignal
Outline: as §2

[2] = target: T9, Human neuropeptide Y (NPY-Y1) (Homo sapiens, UniProt P25929); test: Radioligand binding, human neuropeptide Y NPY-Y1 membranes, FlashPlate, [125I]-PYY; conditions: compound at 10 μM, [125I]-PYY
T9 construct: purchased Perkin Elmer Biosignal
T9 sequence (P25929 1-384): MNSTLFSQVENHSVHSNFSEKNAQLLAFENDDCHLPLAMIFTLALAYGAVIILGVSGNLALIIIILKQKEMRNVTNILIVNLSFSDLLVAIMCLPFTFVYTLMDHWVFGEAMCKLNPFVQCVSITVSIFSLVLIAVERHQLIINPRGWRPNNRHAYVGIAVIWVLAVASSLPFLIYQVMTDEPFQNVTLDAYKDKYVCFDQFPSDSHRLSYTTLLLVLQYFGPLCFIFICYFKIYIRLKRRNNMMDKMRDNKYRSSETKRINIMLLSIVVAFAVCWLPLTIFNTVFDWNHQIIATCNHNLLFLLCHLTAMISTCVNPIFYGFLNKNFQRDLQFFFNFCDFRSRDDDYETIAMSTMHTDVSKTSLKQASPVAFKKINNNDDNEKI
Outline: as §1

Human opioid (ORL1) = target: T10, Human opioid (ORL1) (Homo sapiens, UniProt P41146); test: Radioligand binding, human opioid ORL1 membranes, FlashPlate, [125I]-Nociceptin; conditions: compound at 10 μM, [125I]-Nociceptin
T10 construct: purchased Perkin Elmer Biosignal
Outline: as §1

Mouse urotensin (mUR2) = target: T11, Mouse urotensin (mUR2) (Mus musculus, UniProt Q8VIH9); test: Radioligand binding, mouse urotensin mUR2 membranes, FlashPlate, [125I]-Urotensin II; conditions: compound at 10 μM, [125I]-Urotensin II
T11 construct: purchased Perkin Elmer Biosignal
T11 sequence (Q8VIH9 1-385): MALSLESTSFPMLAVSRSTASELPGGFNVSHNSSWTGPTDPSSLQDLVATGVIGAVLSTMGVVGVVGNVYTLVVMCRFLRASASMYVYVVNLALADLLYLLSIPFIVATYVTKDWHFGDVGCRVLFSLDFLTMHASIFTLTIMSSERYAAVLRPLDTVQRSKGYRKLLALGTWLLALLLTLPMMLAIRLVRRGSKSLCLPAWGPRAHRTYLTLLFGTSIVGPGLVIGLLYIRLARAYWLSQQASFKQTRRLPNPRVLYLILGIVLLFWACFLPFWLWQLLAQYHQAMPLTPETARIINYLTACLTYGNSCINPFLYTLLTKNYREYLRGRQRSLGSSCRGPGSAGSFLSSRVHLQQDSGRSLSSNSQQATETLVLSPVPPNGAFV
Outline: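 Cloned mouse urotensin (mUR2) receptor membranes from Perkin Elmer Biosignal were immobilized in FlashPlate microplates using a proprietary coating. Each well got 19.5 μl buffer, then 0.5 μl of DMSO, reference ligand, or compound. Adding 5 μl of [125I]-Urotensin II, diluted to 5× final concentration in binding buffer, started binding. Plates were sealed with TopSeal-A and incubated 1 hour at room temperature in the dark. Wells were counted for 30 seconds each on a TopCount after a 60-second delay, and percentage inhibition was calculated.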

T7 sequence (P35372 whole entry): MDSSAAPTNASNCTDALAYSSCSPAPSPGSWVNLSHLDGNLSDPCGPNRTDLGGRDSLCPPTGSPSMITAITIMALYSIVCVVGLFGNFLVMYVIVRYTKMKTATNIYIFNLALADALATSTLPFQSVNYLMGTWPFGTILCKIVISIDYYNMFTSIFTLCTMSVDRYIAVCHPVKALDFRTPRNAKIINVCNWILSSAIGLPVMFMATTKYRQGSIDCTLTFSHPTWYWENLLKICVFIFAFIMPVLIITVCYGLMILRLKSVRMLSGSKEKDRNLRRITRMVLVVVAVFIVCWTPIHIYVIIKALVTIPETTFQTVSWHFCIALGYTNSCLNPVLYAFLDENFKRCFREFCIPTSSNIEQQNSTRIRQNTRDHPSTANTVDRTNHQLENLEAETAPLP
T4 sequence (P32245 whole entry): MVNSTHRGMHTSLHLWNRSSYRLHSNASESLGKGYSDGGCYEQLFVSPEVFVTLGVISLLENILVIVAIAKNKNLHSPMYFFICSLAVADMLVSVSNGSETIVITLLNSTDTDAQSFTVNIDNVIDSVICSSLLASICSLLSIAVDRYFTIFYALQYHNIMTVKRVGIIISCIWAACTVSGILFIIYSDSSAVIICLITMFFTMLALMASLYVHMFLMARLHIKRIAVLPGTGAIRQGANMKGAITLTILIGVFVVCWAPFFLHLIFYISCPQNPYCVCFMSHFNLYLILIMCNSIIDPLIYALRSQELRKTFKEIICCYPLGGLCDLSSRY
T2 sequence (P41145 whole entry): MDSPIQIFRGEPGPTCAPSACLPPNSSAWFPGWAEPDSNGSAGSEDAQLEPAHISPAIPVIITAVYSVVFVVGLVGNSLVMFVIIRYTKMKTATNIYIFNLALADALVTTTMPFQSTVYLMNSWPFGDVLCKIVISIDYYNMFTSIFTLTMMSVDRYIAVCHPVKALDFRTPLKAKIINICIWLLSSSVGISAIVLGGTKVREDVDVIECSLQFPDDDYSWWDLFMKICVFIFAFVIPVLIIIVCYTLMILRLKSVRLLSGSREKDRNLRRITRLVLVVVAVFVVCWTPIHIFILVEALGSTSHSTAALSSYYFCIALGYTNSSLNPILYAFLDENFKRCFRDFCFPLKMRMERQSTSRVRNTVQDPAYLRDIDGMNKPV
T8 sequence (P25103 whole entry): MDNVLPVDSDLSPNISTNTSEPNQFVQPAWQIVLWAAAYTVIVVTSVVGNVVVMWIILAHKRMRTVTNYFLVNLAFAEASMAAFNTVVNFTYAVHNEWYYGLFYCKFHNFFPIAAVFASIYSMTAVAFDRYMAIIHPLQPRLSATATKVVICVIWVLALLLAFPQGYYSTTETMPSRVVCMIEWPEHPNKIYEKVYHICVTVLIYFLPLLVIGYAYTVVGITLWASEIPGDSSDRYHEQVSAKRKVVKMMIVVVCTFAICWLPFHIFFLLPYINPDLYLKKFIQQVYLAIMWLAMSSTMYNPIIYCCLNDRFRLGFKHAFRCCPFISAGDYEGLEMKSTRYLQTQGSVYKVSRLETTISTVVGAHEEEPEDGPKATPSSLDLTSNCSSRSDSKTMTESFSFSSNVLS
T6 sequence (Q99705 whole entry): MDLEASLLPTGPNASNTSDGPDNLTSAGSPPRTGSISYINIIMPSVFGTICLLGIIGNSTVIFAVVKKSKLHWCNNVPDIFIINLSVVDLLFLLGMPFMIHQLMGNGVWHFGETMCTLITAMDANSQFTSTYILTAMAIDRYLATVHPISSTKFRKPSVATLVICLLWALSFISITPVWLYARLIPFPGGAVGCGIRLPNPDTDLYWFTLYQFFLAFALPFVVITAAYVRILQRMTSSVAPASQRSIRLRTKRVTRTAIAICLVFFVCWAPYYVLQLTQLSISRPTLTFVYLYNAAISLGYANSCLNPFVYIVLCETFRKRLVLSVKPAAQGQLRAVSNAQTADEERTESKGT
T3 sequence (P41968 whole entry): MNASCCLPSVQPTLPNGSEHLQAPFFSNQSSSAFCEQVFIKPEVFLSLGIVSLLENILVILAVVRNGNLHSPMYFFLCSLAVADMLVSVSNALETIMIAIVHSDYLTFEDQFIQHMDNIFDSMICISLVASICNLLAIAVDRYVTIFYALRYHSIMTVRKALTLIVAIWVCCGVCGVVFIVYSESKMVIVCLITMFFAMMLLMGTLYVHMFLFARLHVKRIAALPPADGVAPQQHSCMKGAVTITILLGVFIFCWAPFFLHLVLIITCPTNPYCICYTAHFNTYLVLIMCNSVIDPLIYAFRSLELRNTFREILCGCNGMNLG
T5 sequence (P33032 whole entry): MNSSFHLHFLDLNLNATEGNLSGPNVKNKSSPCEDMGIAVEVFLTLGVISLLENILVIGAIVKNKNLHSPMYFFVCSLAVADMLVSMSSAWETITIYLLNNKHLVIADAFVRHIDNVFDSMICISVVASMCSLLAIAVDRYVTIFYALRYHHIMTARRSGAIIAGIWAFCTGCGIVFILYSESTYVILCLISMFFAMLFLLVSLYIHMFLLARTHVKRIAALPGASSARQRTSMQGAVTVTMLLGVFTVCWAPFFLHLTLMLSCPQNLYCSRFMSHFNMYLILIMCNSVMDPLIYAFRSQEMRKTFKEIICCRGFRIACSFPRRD
T10 sequence (P41146 whole entry): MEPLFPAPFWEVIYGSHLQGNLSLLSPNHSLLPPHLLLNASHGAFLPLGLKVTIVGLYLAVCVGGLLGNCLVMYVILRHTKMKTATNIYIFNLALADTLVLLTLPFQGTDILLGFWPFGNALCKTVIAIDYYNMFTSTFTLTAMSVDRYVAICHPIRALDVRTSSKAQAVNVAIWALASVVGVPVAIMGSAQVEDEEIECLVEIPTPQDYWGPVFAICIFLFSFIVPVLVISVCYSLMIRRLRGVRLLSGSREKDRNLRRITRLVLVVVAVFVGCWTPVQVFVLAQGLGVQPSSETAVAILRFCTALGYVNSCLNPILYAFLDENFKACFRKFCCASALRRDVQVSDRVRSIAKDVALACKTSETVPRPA
T1 sequence (P41143 whole entry): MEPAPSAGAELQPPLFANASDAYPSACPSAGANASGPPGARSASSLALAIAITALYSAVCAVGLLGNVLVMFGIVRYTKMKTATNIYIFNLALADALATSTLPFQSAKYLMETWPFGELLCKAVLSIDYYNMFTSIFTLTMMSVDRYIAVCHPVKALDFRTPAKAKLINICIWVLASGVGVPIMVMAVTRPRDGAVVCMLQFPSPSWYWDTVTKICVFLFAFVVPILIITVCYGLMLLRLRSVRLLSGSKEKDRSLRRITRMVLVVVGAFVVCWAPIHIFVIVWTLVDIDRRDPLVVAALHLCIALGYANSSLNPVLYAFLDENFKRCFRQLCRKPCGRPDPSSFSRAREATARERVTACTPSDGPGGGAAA

| Compound | A1: inhibition of radioligand binding (Human δ-opioid (DOP); FlashPlate) | A2: inhibition of radioligand binding (Human κ-Opioid (KOP); filtration) | A3: inhibition of radioligand binding (Human Melanocortin (MC3); FlashPlate) | A4: inhibition of radioligand binding (Human Melanocortin (MC4); FlashPlate) | A5: inhibition of radioligand binding (Human melanocortin (MC5); FlashPlate) | A6: inhibition of radioligand binding ([1]; [125I]-S36057, FlashPlate) | A7: inhibition of radioligand binding (Human μ-opioid (MOP); FlashPlate) | A8: inhibition of radioligand binding (Human neurokinin (NK1); filtration) | A9: inhibition of radioligand binding ([2]; FlashPlate) | A10: inhibition of radioligand binding (Human opioid (ORL1); FlashPlate) | A11: inhibition of radioligand binding (Mouse urotensin (mUR2); FlashPlate) | further results |
| --- | --- | --- | --- | --- | --- | --- | --- | --- | --- | --- | --- | --- |
| CSC1OC(COCc2ccc3ccccc3c2)C(O)C(OCc2ccccc2)C1NC(=O)CCNC(=N)N (stereo not shown) [compound 262] | − (“−” indicates less than 50% inhibition at 10 μM) | − (“−” indicates less than 50% inhibition at 10 μM) | − (“−” indicates less than 50% inhibition at 10 μM) | − (“−” indicates less than 50% inhibition at 10 μM) | + (“+” indicates greater than 50% inhibition at 10 μM) | − (“−” indicates less than 50% inhibition at 10 μM) | − (“−” indicates less than 50% inhibition at 10 μM) | + (“+” indicates greater than 50% inhibition at 10 μM) | − (“−” indicates less than 50% inhibition at 10 μM) | − (“−” indicates less than 50% inhibition at 10 μM) | − (“−” indicates less than 50% inhibition at 10 μM) |  |
| COCC1OC(OCc2ccc3ccccc3c2)C(NC(=O)CCNC(=N)N)C(OCc2ccc3ccccc3c2)C1O (stereo not shown) [compound 249] | − (“−” indicates less than 50% inhibition at 10 μM) | − (“−” indicates less than 50% inhibition at 10 μM) | + (“+” indicates greater than 50% inhibition at 10 μM) | + (“+” indicates greater than 50% inhibition at 10 μM) | + (“+” indicates greater than 50% inhibition at 10 μM) | + (“+” indicates greater than 50% inhibition at 10 μM) | + (“+” indicates greater than 50% inhibition at 10 μM) | + (“+” indicates greater than 50% inhibition at 10 μM) | − (“−” indicates less than 50% inhibition at 10 μM) | − (“−” indicates less than 50% inhibition at 10 μM) | − (“−” indicates less than 50% inhibition at 10 μM) |  |
| COCC1OC(OCc2ccc(Cl)cc2)C(NC(=O)CN)C(OCc2ccc(-c3ccccc3)cc2)C1O (stereo not shown) [compound 205] | − (“−” indicates less than 50% inhibition at 10 μM) | − (“−” indicates less than 50% inhibition at 10 μM) | − (“−” indicates less than 50% inhibition at 10 μM) | + (“+” indicates greater than 50% inhibition at 10 μM) | + (“+” indicates greater than 50% inhibition at 10 μM) | − (“−” indicates less than 50% inhibition at 10 μM) | − (“−” indicates less than 50% inhibition at 10 μM) | + (“+” indicates greater than 50% inhibition at 10 μM) | − (“−” indicates less than 50% inhibition at 10 μM) | − (“−” indicates less than 50% inhibition at 10 μM) | − (“−” indicates less than 50% inhibition at 10 μM) |  |
| NCCC(=O)N[C@H]1C(OCc2ccc3ccccc3c2)O[C@H](COCc2ccccc2)[C@@H](O)[C@@H]1OCc1ccc2ccccc2c1 (stereo partly shown) [compound 444] |  |  |  |  |  |  |  |  |  |  |  | A1: inhibition of radioligand binding (Human δ-opioid (DOP); human DOP membranes): − (“−” indicates less than 50% inhibition at 10 μM); A2: inhibition of radioligand binding (Human κ-Opioid (KOP); human KOP membranes, 10 µM): − (“−” indicates less than 50% inhibition at 10 μM); A3: inhibition of radioligand binding (Human Melanocortin (MC3); human MC3 membranes, 10 µM): − (“−” indicates less than 50% inhibition at 10 μM); A4: inhibition of radioligand binding (Human Melanocortin (MC4); human MC4 membranes, 10 µM): − (“−” indicates less than 50% inhibition at 10 μM); A5: inhibition of radioligand binding (Human melanocortin (MC5); human MC5 membranes, 10 µM): − (“−” indicates less than 50% inhibition at 10 μM); A6: inhibition of radioligand binding ([1]; [125I]-S36057, human MCH1 membranes, 10 µM): − (“−” indicates less than 50% inhibition at 10 μM); A7: inhibition of radioligand binding (Human μ-opioid (MOP); human MOP membranes, 10 µM): − (“−” indicates less than 50% inhibition at 10 μM); A8: inhibition of radioligand binding (Human neurokinin (NK1); human NK1 membranes): + (“+” indicates greater than 50% inhibition at 10 μM); A9: inhibition of radioligand binding ([2]; human NPY-Y1 membranes): − (“−” indicates less than 50% inhibition at 10 μM); A10: inhibition of radioligand binding (Human opioid (ORL1); human ORL1 membranes, 10 µM): − (“−” indicates less than 50% inhibition at 10 μM); A11: inhibition of radioligand binding (Mouse urotensin (mUR2); mouse mUR2 membranes): − (“−” indicates less than 50% inhibition at 10 μM) |
| COCC1OC(OCc2ccc3ccccc3c2)C(NC(=O)CCCN)C(OCc2ccccc2)C1O (stereo not shown) [compound 233] | − (“−” indicates less than 50% inhibition at 10 μM) | − (“−” indicates less than 50% inhibition at 10 μM) | − (“−” indicates less than 50% inhibition at 10 μM) | − (“−” indicates less than 50% inhibition at 10 μM) | − (“−” indicates less than 50% inhibition at 10 μM) | − (“−” indicates less than 50% inhibition at 10 μM) | − (“−” indicates less than 50% inhibition at 10 μM) | + (“+” indicates greater than 50% inhibition at 10 μM) | − (“−” indicates less than 50% inhibition at 10 μM) | − (“−” indicates less than 50% inhibition at 10 μM) | − (“−” indicates less than 50% inhibition at 10 μM) |  |
